Assay results from patent US20250360145A1, “CSF-1R INHIBITORS AND USES THEREOF” (Myrobalan Therapeutics, Inc., priority 2022, published 2025).
Where two headings read alike, the source gives them in different places.

Tests used:
c-Kit = c-Kit (Homo sapiens (Human), UniProt P10721); experiment: Biochemical HTRF kinase assay, c-Kit; settings: for IC50: recombinant human protein, read-out: cKit IC50; for cKit Fold: selectivity: IC50 of cKit as multiple of IC50 of CSF-1R;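 on all read-outs here: enzyme reaction with substrate and ATP run in 384-well plates for 1 hour at room temperature, kinase activity detected by HTRF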
c-Kit, sequence (P10721 26-976): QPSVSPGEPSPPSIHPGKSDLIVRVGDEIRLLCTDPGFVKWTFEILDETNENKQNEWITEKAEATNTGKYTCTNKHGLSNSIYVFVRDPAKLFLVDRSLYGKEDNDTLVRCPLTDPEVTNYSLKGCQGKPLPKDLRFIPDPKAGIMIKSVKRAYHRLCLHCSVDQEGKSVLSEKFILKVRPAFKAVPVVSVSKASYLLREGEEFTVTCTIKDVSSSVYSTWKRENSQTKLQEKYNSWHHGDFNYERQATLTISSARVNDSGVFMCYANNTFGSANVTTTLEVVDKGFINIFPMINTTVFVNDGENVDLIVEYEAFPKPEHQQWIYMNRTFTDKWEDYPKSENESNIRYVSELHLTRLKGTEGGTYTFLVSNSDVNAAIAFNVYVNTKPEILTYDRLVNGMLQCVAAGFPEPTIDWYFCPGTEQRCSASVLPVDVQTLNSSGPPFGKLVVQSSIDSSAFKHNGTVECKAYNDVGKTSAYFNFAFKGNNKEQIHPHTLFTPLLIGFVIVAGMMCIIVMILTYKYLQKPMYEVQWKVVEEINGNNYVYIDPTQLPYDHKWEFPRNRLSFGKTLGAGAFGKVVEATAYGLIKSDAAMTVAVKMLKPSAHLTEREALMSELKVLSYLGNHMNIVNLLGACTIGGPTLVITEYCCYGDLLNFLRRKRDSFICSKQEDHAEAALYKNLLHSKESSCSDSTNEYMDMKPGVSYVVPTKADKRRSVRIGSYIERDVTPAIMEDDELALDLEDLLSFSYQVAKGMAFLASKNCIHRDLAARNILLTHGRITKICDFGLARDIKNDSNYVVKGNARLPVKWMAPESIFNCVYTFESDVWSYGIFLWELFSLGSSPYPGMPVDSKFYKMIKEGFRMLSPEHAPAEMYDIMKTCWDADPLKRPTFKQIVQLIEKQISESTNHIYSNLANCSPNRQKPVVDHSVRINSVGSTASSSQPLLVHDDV

PDGFRβ = PDGFRβ (Homo sapiens (Human), UniProt P09619); experiment: Biochemical HTRF kinase assay, PDGFRβ; settings: for IC50: recombinant human protein, read-out: PDGFR-1β IC50; for PDGFR-1β Fold: selectivity: IC50 of PDGFR-1β as multiple of IC50 of CSF-1R;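 on all read-outs here: kinase reaction with substrate/ATP mix run 1 h at room temperature in 384-well format, HTRF signal detection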
PDGFRβ, sequence (P09619 33-1106): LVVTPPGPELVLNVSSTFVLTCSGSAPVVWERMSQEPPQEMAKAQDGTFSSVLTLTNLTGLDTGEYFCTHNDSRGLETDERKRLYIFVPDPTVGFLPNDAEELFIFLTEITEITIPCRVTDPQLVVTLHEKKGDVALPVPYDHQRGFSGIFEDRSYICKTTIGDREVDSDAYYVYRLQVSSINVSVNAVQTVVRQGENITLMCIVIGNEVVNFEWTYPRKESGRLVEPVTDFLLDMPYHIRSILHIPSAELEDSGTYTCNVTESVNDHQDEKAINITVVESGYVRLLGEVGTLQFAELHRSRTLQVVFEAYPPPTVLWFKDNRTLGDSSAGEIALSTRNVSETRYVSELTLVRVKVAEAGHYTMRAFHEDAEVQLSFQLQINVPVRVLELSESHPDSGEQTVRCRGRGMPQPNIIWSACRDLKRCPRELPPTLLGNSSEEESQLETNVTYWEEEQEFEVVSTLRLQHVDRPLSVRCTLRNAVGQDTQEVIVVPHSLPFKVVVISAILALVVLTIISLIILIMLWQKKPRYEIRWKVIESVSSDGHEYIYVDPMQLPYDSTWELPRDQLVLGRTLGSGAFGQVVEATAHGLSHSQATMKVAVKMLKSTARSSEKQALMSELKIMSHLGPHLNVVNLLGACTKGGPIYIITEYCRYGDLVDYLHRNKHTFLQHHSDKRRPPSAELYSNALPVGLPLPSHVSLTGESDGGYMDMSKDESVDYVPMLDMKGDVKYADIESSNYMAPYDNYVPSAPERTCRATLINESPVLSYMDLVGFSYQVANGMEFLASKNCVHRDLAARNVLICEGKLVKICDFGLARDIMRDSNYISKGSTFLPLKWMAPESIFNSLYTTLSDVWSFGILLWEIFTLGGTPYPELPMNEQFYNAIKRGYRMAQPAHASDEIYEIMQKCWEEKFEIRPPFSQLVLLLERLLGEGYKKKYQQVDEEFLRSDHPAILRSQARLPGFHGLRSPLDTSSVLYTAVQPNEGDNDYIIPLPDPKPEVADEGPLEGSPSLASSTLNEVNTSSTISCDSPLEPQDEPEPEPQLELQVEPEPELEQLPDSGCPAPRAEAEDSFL

[1] = Brain protein binding study; assay type: in vitro ADME; settings: mouse brain homogenate, equilibrium dialysis 4 hours
Experimental: On the day of experiment, brain homogenate was thawed in water bath at room temperature and then incubated at 37° C. for 10 min before use. Pretreat the dialysis membrane according to the manufacturer's instructions: the dialysis membrane strips were soaked in ultra pure water at room temperature for approximately 1 hr. After that, each membrane strip that contains 2 membranes was separated and soaked in ethanol:water (20:80 v:v) for approximately 20 min, after which it was ready for use or was stored in the solution at 2-8° C. for up to 1 month. Prior to the experiment, the membrane was rinsed and soaked for 20 min in ultra pure water for use. Then working solutions (400 μM) of test compound and control compound were prepared. Aliquots of working solutions (3 μL) were spiked into blank matrix (597 μL) to achieve final concentrations and mixed thoroughly. Aliquots of 50 μL loading matrix containing test compound or control compound in triplicate was transferred to Sample Collection Plate, respectively. The samples were matched with opposite blank buffer to obtain a final volume of 100 μL with a volume ratio of matrix:Dialysis Buffer (1:1, v:v) in each well immediately. The stop solution was added to these T0 samples of test compound and control compound. The plate was sealed and shaked at 800 rpm for 10 min. Then these T0 samples were stored at 2-8° C. pending further process along with other post-dialysis samples. The dialysis instrument was assembled following manufacture's instructions. An aliquot of 100 μL of the loading matrix containing test compound or control compound was transferred to the donor side of each dialysis well in triplicate and 100 μL of the Dialysis Buffer was loaded to the receiver side of the well. Then the plate was rotated at approximately 100 rpm in a humidified incubator with 5% CO2 at 37±1° C. for 4 hours. At the end of the dialysis, aliquots of 50 μL samples from the buffer side and matrix side of the dialysis device were taken into new 96-well plates (Sample Collection Plates). An equal volume of opposite blank matrix (buffer or matrix) in each sample was added to reach a final volume of 100 μL with volume ratio of matrix:Dialysis Buffer at 1:1 (v:v) in each well. All samples were further processed by protein precipitation for LC/MS/MS analysis.

[2] = In vivo PK study (plasma and brain exposure); set-up: species or system CD1 mouse; settings: for Kp uu / half-life / AUC(0-t) / AUC(0-inf) / clearance / Vd / bioavailability / Cmax / Tmax: male; for Kp uu: CD1, brain, BBB penetration; for half-life: CD1, mouse; for clearance: read-out: IV-2mpk CL (converted); for Vd: read-out: IV-2mpk VSS; for bioavailability: p.o. 45 mg/kg vs i.v. 2 mg/kg; for Cmax: read-out: PO-45mpk Cmax; for Tmax: read-out: PO-45mpk Tmax
Experimental: The PK profiles were determined in CD1 mouse, and all the procedures and protocols were in accordance with the National Institutes of Health Guide for the Care and Use of Laboratory Animals. The CD1 mouse were purchased from JH Laboratory Animal Co. LTD. The CD1 mouse (23-30 g, 6-8 weeks, male) were randomized and divided into five groups consisting of 21 mouse per group. The test compounds that have been formulated were subjected to PK studies. The test compounds were administrated via p.o. at 45 mg/kg and i.v. at 2 mg/kg. […] The blood samples were placed on wet ice, and serum was collected after centrifugation. Serum samples were frozen and stored at −70° C. The brain samples were dried on filtrate paper, and snap frozen on dry ice and further stored at −70° C. Then, the blood samples and brain samples were further analyzed by LC-MS/MS (Triple Quad 6500+).

[3] = system: Ba/F3_CSF-1R (stably expressing human CSF-1R kinase); experiment: Cell proliferation assay, Ba/F3_CSF-1R; assay type: cell-based; settings: BaF3, 72 h
primary rat microglia = experiment: Primary rat microglia survival; assay type: cell-based; settings: 3 days of exposure, Iba1 staining
Text: To assess the potency of CSF1R inhibitors disclosed herein we isolated and expanded primary brain glia from rat cortices in-vitro. This glial culture is about 20% microglia that is supported mostly by astrocytes that make up the rest of the population. The brain glia was exposed to CSF1R inhibitors for 3 days followed by paraformaldehyde fixation and immunofluorescence staining for the microglia marker, Iba1. The glial was imaged using a high-content-imager and the changes in microglia content were quantified. Using GraphPad Prism, a four-parameter logistic regression was applied to determine the potency of the CSF1R inhibitors.

[4] = system: human iPSC-derived microglia (hiPSC-MG); experiment: hiPSC-MG survival (Presto-Blue viability); assay type: cell-based; settings: 48 h treatment; for hiPSC-MG survival: FIG. 7B
[5] = serum, iv, 2 mg/kg, CD1 mouse, i.v. 2 mg/kg, read-out: IV-2mpk T1/2 (converted)
[6] = serum, po, 45 mg/kg, CD1 mouse, p.o. 45 mg/kg, read-out: PO-45mpk T1/2 (converted)
[7] = CD1, po, mouse, p.o. 45 mg/kg, brain, read-out: PO-45mpk AUClast-brain
[8] = CD1, po, mouse, p.o. 45 mg/kg, plasma, Tables 7 and 8, read-out: PO-45mpk AUClast-plasma
[9] = serum, iv, CD1 mouse, i.v. 2 mg/kg, read-out: IV-2mpk AUCInf
[10] = serum, iv, CD1 mouse, i.v. 2 mg/kg, read-out: IV-2mpk AUClast
[11] = serum, iv, CD1 mouse, i.v. 2 mg/kg
[12] = serum, po, CD1 mouse, p.o. 45 mg/kg, Tables 5 and 6, read-out: PO-45mpk AUClast
[13] = serum, po, CD1 mouse, p.o. 45 mg/kg, read-out: PO-45mpk AUCInf
[14] = serum, po, CD1 mouse, p.o. 45 mg/kg
[15] = Ba/F3_CSF-1R cells, 72 hours treatment, read-out: CSF-1R BaF3 EC50
[16] = read-out: CSF-1R BaF3 EC50 (nM)

Row | Structure (SMILES) | IC50 (c-Kit) [nM] | cKit Fold (c-Kit) [fold] | IC50 (PDGFRβ) [nM] | PDGFR-1β Fold (PDGFRβ) [fold] | BPB-mouse (Bound) (%) [1] [%] | Kp uu ([2]; po, mouse, p.o. 45 mg/kg) | half-life [2, 5] [h] | half-life [2, 6] [h] | AUC(0-t) [2, 7] [ng·h/mL] | AUC(0-t) [2, 8] [ng·h/mL] | AUC(0-inf) [2, 9] [ng·h/mL] | AUC(0-t) [2, 10] [ng·h/mL] | clearance [2, 11] [mL/min/kg] | Vd [2, 11] [L/kg] | bioavailability ([2]; serum, po, CD1 mouse) [%] | AUC(0-t) [2, 12] [ng·h/mL] | AUC(0-inf) [2, 13] [ng·h/mL] | Cmax [2, 14] [ng/mL] | Tmax [2, 14] [h] | primary rat microglia survival (primary rat microglia) | also measured
1 | COc1ccc(COc2ncc(Cc3ccnc4cc(N5CCN(C)CC5)cnc34)cc2OC)nc1 [Example 116] | > 1000 | >100 | > 1000 | >100 | 95.5 | 0.99 | 6.42 | 4.87 | 4250 | 4620 | 578 | 566 | 57.7 | 9.54 | 42.1 | 5370 | 5480 | 2310 | 0.25 | – | EC50 [3, 15]: 33.8 nM
2 | COc1cnc2c(Cc3cnc(OCc4cc5n(n4)C[C@H](OC)C5)c(OC)c3)ccnc2c1 [Example 136, (R)-3-methoxy-8-((5-methoxy-6-((5-methoxy-5,6-dihydro-4H-pyrrolo[1,2-b]pyrazol-2-yl)methoxy)pyridin-3-yl)methyl)-1,5-naphthyridine] | > 1000 | >100 | > 1000 | >100 | 97.3 | 0.94 | 0.777 | – | 16200 | 93200 | 4940 | 4940 | 6.75 | 0.274 | 77.1 | 85700 | – | 51200 | 0.5 | dose-dependent inhibition of primary rat microglia survival | hiPSC-MG survival [4]: dose-dependent inhibition of hiPSC-MG survival; EC50 [3, 16]: 66.2 nM
3 | COc1ccc(COc2ncc(Cc3ccnc4cc(OC)cnc34)cc2OC)nc1 [Example 16, 3-methoxy-8-((5-methoxy-6-((5-methoxypyridin-2-yl)methoxy)pyridin-3-yl)methyl)-1,5-naphthyridine] | 881 | >100 | > 1000 | >100 | 98.10 | 1.1 | 2.52 | 1.9 | 76800 | 210000 | 4460 | 4460 | 7.47 | 0.955 | 215 | 216000 | 216000 | 31400 | 1 | dose-dependent inhibition of primary rat microglia survival | hiPSC-MG survival IC50 compared with BLZ945 [4]: lower than that of BLZ945; IC50 ([4]; Homo sapiens, Microglia): 31.5 nM; IV-2mpk CL ([2]; CD1 mouse, i.v. 2 mg/kg): 7.47 mL/min/kg; IV-2mpk T1/2 ([2]; CD1 mouse, i.v. 2 mg/kg): 2.52 h; EC50 [3, 15]: 61.7 nM
4 | COc1ccc(COc2ncc(Cc3ccnc4cc(-c5ccn(C)n5)cnc34)cc2OC)nc1 [Example 134, 8-((5-methoxy-6-((5-methoxypyridin-2-yl)methoxy)pyridin-3-yl)methyl)-3-(1-methyl-1H-pyrazol-3-yl)-1,5-naphthyridine] | – | – | 394 | 59.7 | 98.8 | 0.75 | 1.39 | 1.86 | 44400 | 88400 | 1890 | 1860 | 17.7 | 1.45 | 227 | 96400 | 96500 | 18100 | 0.5 | dose-dependent inhibition of primary rat microglia survival | hiPSC-MG survival IC50 compared with BLZ945 [4]: lower than that of BLZ945; hiPSC-MG survival [4]: dose-dependent inhibition of hiPSC-MG survival; EC50 [3, 16]: 7.1 nM
